The subject of one data set is C. trachomatis. Particulars: added to the replication phase of developmental cycle; cited from earlier work.
Data set [1] has as its system MT-S247A (recombinant cHtrA mutant). In kind it is in vitro ADME, C. trachomatis serovar D. Particulars: AMP 100 μg/mL, mutant 100 μg/mL, 37°C, 30 min.
A further data set has as its system recombinant cHtrA. In kind it is in vitro ADME, C. trachomatis serovar D. Particulars: AMP 100 μg/mL, cHtrA 100 μg/mL, 37°C, 30 min; Coomassie blue staining.
Data set [2] concerns MT-H143A (recombinant cHtrA mutant). In kind it is in vitro ADME, C. trachomatis serovar D. Particulars: AMP 100 μg/mL, mutant 100 μg/mL, 37°C, 30 min.

Results on two compounds are retold here after paper PMC7366784 (Medical Science Monitor : International Medical Journal of …, 2020).

`CC(C)C(NC(=O)[C@@H]1CCCN1C(=O)[C@@H](NC(=O)OC(C)(C)C)C(C)C)P(=O)(Oc1ccccc1)Oc1ccccc1` (stereo partly shown) [JO146]: the “Effect on C. trachomatis” value in the data set with C. trachomatis is reported as “lethal to C. trachomatis”.

On to `CC[C@H](C)[C@H](NC(=O)[C@H](CCCCN)NC(=O)[C@H](CCC(=O)O)NC(=O)[C@H](CCCCN)NC(=O)[C@H](CO)NC(=O)[C@H](CCCCN)NC(=O)[C@H](CCCNC(=N)N)NC(=O)[C@H](Cc1ccccc1)NC(=O)[C@H](Cc1ccccc1)NC(=O)[C@H](CC(=O)O)NC(=O)CNC(=O)[C@H](CC(C)C)NC(=O)[C@@H](N)CC(C)C)C(=O)NCC(=O)N[C@@H](CCCCN)C(=O)N[C@@H](CCC(=O)O)C(=O)N[C@@H](Cc1ccccc1)C(=O)N[C@@H](CCCCN)C(=O)N[C@@H](CCCNC(=N)N)C(=O)N[C@H](C(=O)N[C@H](C(=O)N[C@@H](CCC(N)=O)C(=O)N[C@@H](CCCNC(=N)N)C(=O)N[C@H](C(=O)N[C@@H](CCCCN)C(=O)N[C@@H](CC(=O)O)C(=O)N[C@@H](Cc1ccccc1)C(=O)N[C@@H](CC(C)C)C(=O)N[C@@H](CCCNC(=N)N)C(=O)N[C@@H](CC(N)=O)C(=O)N[C@@H](CC(C)C)C(=O)N[C@H](C(=O)N1CCC[C@H]1C(=O)N[C@@H](CCCNC(=N)N)C(=O)N[C@H](C(=O)N[C@@H](CCC(=O)O)C(=O)N[C@@H](CO)C(=O)O)[C@@H](C)O)C(C)C)[C@@H](C)CC)C(C)C)[C@@H](C)CC` [LL-37], for which, in data set [1], the “Degradation of AMP by MT-S247A” value is reported as “unable to degrade LL-37”. Further, in the data set with recombinant cHtrA, the “Degradation of AMP by 100 μg/mL recombinant cHtrA” value is “degraded all LL-37”. The “Degradation of AMP by MT-H143A” value in data set [2] is “unable to degrade LL-37”.
